“Also recorded” adds a separate entry of the source.
What was measured:
VEGFR-2 = conditions: cited from earlier work
zebrafish larvae = assay: Locomotion behavioral test of zebrafish larvae; type: in vivo; conditions: for MPTP-induced deficit of swimming behavior (total distance travelled): 200 μM MPTP 2 days, then 10 μM MPTP plus drug 3 days, L-deprenyl 20 μM, L-dopa 150 μM
Experimental: (§1) Wild-type zebrafish (AB strain) and Tg (fli-1:EGFP) transgenic zebrafish were maintained as described in the Zebrafish Handbook (Westerfield, 1993). Zebrafish embryos were generated by natural pair-wise mating (3-12 months old) and raised at 28.5° C. in embryo medium (13.7 mM NaCl, 540 μM KCl, pH 7.4, 25 μM Na2HPO4, 44 μM KH2PO4, 300 μM CaCl2, 100 μM MgSO4, 420 μM NaHCO3, pH 7.4). […] An equal concentration of DMSO in embryo medium was used as vehicle control in each experiment.
Thus the MPTP exposure needs to last 5 day from 1 dpf. […] Thus subsequent locomotion behavioral studies were done with 200 μM MPTP for treatment for 2 days at 1 dpf then replacing insult with 10 μM MPTP for incubation for another 3 days.
(§2) After drug treatment, zebrafish larvae at 6 dpf were transferred into 96-well plates (1 fish/well and 12 larvae/group). Fishes responded with excessive stress reaction (such as rapid and disorganized swimming or immobility for 2 min) due to the handling and monitoring of the behavior were discarded. The experiments were performed in a calm enclosed area. The larvae were allowed to habituate to the new environment for 30 min prior to experiments. Behavior was monitored by an automated video tracking system (Viewpoint, ZebraLab, LifeSciences). The 96-well plates and camera were housed inside a Zebrabox and the swimming pattern of each fish was recorded for 10 min and repeated 3 times, once every other 10 min. The total distance moved was defined as the distance (in cm) that the fish had moved during one session (10 min).
Normally as late as 3 dpf, zebrafish larvae show very little spontaneous swimming, but by 5 dpf they spontaneously swim longer distances and independently search for food. The MPTP exposure therefore needs to last 5 days from 1 dpf. […] Thus subsequent locomotion behavioral studies were performed with 200 μM MPTP for 2-day treatment at 1 dpf then replacing with media containing 10 μM MPTP for another 3-day incubation.
as §2, with “The larvae were discarded due to” for “Fishes responded with”, “reaction to the handling and monitoring of behavior” for “reaction”, “min).” for “min) due to the handling and monitoring of the behavior were discarded.”, “sealed” for “enclosed”, “min. Swimming behavior” for “min prior to experiments. Behavior”, “for” for “repeated”

CGNs [1] = assay: MPP+-induced neurotoxicity in CGNs, MTT and LDH assays; type: cell-based, rat; conditions: pre-treatment 2 hours, then 35 μM MPP+ for 24 hours
Experimental: (§3) All animal experiments were conducted according to the ethical guidelines of ICMS, Macau University and the Animal Care Facility, The Hong Kong Polytechnic University. Rat CGNs were prepared from 8-day-old Sprague-Dawley rats (The Animal Care Facility, The Hong Kong Polytechnic University) as described by Li et al., 2005. Briefly, neurons were seeded at a density of 2.7×10^5 cells/ml in basal modified Eagle's medium (Invitrogen) containing 10% fetal bovine serum, 25 mM KCl, 2 mM glutamine, and penicillin (100 units/ml)/streptomycin (100 μg/ml). Cytosine arabinoside (10 μM) was added to the culture medium 24 hour after plating to limit the growth of non-neuronal cells. With the use of this protocol, more than 95% of the cultured cells were granule neurons.
(§4) The percentage of surviving neurons in the presence of SU4312 and/or MPP^+ was estimated by determining the activity of mitochondrial dehydrogenases with 3(4,5-dimethylthiazol-2-yl)-2.5-diphenyltetrazolium bromide (MTT) assay (Li et al., 2007). The assay was performed according to the specifications of the manufacturer (MTT kit I; Roche Applied Science). Briefly, the neurons were cultured in 96-well plates, 10 μl of 5 mg/ml MTT labeling reagent was added to each well containing cells in 100 μl of medium, and the plates were incubated for 4 hours in a humidified incubator at 37° C. After the incubation, 100 μl of the solvating solution (0.01 N HCl in 10% SDS solution) was added to each well for 16-20 hours. Absorbance of the samples was measured at a wavelength of 570 nm with 655 nm as a reference wavelength. Unless otherwise indicated, the extent of MTT conversion in cells exposed to MPP^+ is expressed as a percentage of the control.
Cytotoxicity was determined by measuring the release of lactate dehydrogenase (LDH). Briefly, cells were precipitated by centrifugation at 500 g for 5 min at room temperature, 50 μl of the supernatants was transferred into new wells, and LDH was determined using the in vitro toxicology assay kit (Roche). The absorbance of the samples was measured at a wavelength of 490 nm with 655 nm as a reference wavelength.
as §3, with “Rat” for “All animal experiments were conducted according to the ethical guidelines of ICMS, Macau University and the Animal Care Facility, The Hong Kong Polytechnic University. Rat”, “hours” for “hour”
as §4, with “The” for “The percentage of surviving neurons in the presence of SU4312 and/or MPP^+ was estimated by determining the activity of mitochondrial dehydrogenases with 3(4,5-dimethylthiazol-2-yl)-2.5-diphenyltetrazolium bromide (MTT) assay (Li et al., 2007). The”, “incubated at 37° C.” for “incubated”, “incubator.” for “incubator at 37° C.”, “The absorbance” for “Absorbance”

nNOS = nNOS (Homo sapiens, UniProt P29475); conditions: cited from earlier work
iNOS = iNOS (Homo sapiens, UniProt P35228); conditions: cited from earlier work
[2] = system: DA neurons in the zebrafish brain; assay: MPTP zebrafish, whole-mount immunostaining against tyrosine hydroxylase; type: in vivo; conditions: 200 μM MPTP, 2 days from 1 dpf; SU4312 3-30 μM, PTK787/ZK222584 0.3-3 μM, SU5416 0.1-1 μM, VRI 0.03-0.3 μM
Experimental: as §1

[3] = system: intersegmental-vessel (ISV) formation; assay: Intersegmental-vessel formation in Tg(fli-1:EGFP) zebrafish; type: in vivo; conditions: 1 dpf embryos treated 48 hours; SU4312 3-30 μM, PTK787/ZK222584 0.3-3 μM, VRI 0.1-0.3 μM, SU5416 0.3-1 μM
Experimental: as §1
(§5) After drug treatment, zebrafish were removed from microplate and observed for gross morphological changes of blood vessel under a fluorescence microscope (Olympus am Motorized Inverted Microscope, Japan) equipped with a digital camera (DP controller, Soft Imaging System, Olympus). Images were analyzed with Axiovision 4.2 and Adobe Photoshop 7.0.
(§6) Wild-type zebrafish (AB strain) and Tg(fli-1:EGFP) transgenic zebrafish were maintained as described in the Zebrafish Handbook (Westerfield, 1993). Zebrafish embryos were generated by natural pair-wise mating (3-12 months old) and were raised at 28.5° C. in embryo medium (13.7 mM NaCl, 540 μM KCl, pH 7.4, 25 μM Na2HPO4, 44 μM KH2PO4, 300 μM CaCl2, 100 μM MgSO4, 420 μM NaHCO3, pH 7.4). […] Equal concentration of DMSO in embryo medium was used as vehicle control in each experiment.
as §5, with “from the” for “from”

zebrafish = assay: Toxicity to zebrafish; type: in vivo; conditions: SU5416 10 μM, VRI 3 μM, SU4312 up to 30 μM
Experimental: as §1, §6

CGNs [4] = assay: Low potassium-induced cell death in CGNs, MTT assay; type: cell-based; conditions: 5 mM KCl BME medium, 24 hours; sunitinib 0.1-2 μM
Experimental: Cell viability was measured by MTT assay at 24 hours after low potassium challenge. […] After 24 hours of low potassium challenge, CGNs were assayed with an FDA/PI double staining. […] After 24 hours of low potassium challenge, CGNs were assayed with Hoechst staining. The number of apoptotic nuclei with condensed chromatin were counted from representative Hoechst staining photomicrographs and represented as a percentage of the total number of nuclei counted. […] Intracellular NO level was measured using DAF-FM diacetate as a probe at 4 hour after low potassium challenge. Data, expressed as percentage of control (CGNs were cultured in high potassium medium), were the mean±SEM of three separate experiments; *p<0.05 and **p<0.01 versus low potassium group in (A) and (D) or versus control in (C); ^##p<0.01 versus low potassium group in (C) (Turkey's test).
It was previously reported that low potassium could induce typical apoptosis in cerebellar granule neurons (CGNs) (Fu et al., 2008). […] Cell viability was measured with an MTT assay 24 hours after the low potassium treatment.

SMILES: CN(C)c1ccc(/C=C2\C(=O)Nc3ccccc32)cc1 [cis-SU4312]
- IC50 (VEGFR-2): 800 nM

SMILES: N[C@@H](Cc1ccc(O)c(O)c1)C(=O)O [levodopa]
- MPTP-induced deficit of swimming behavior (total distance travelled) (zebrafish larvae): rescued

SMILES: C#CCN(C)[C@H](C)Cc1ccccc1 [L-deprenyl]
- MPTP-induced deficit of swimming behavior (total distance travelled) (zebrafish larvae): rescued

SMILES: CCSC(=N)N [EPTU, 2-ethyl-2-thiopseudourea]
- MPP+-induced cell death (cell viability, MTT and LDH assays) (CGNs [1]): prevented MPP^+-induced neuronal death in CGNs
- IC50 (nNOS): 36 nM
- IC50 (iNOS): 17 nM

SMILES: CC(=N)NCc1cccc(CN)c1 [1400W]
- MPP+-induced cell death (cell viability, MTT and LDH assays) (CGNs [1]): failed to block neuronal death; also recorded: did not show protection

SMILES: O=C1Nc2ccc(Br)cc2/C1=C/c1cc2c([nH]1)CCCC2 [VRI]
- MPP+-induced cell death (cell viability, MTT and LDH assays) (CGNs [1]): at 1 and 3 μM failed to block neuronal loss in vitro
- MPTP-induced loss of DA neurons / decrease of TH+ region area [2]: could not prevent MPTP-induced decrease in TH^+ region area
- MPTP-induced deficit of swimming behavior (total distance travelled) (zebrafish larvae): but not VRI ameliorated the MPTP-induced deficit of swimming behavior
- swimming behavior of normal zebrafish larvae, drug alone (zebrafish larvae; zebrafish, in vivo): Neither SU5416 nor VRI treatment alone notably altered the swimming behavior
- inhibition of intersegmental-vessel (ISV) formation [3]: inhibited the formation of intersegmental-vessels
- toxicity to zebrafish (zebrafish): showed toxicity to zebrafish
- IC50 (VEGFR-2): 70000 nM

SMILES: CN(C)c1ccc(/C=C2/C(=O)Nc3ccccc32)cc1 [trans-SU4312]
- IC50 (VEGFR-2): 5200 nM

SMILES: CNC(=N)NCCC[C@H](N)C(=O)O [L-NMMA]
- low potassium-induced cell death (MTT) (CGNs [4]): at 10-20 μM prevented low potassium-induced neuronal death in CGNs
